Like-named read-outs stand apart in the source and are kept apart here.
Legend:
Test in all cases: Ras GTP binding domain inhibition assay (Cy3-GTP/Cy5-GTP competition)
Rac-1 = Rac-1 (Homo sapiens, UniProt P63000)
Summary of the method: (§1)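 Compounds tested at 20 μM or in serial dilution for IC50 against nickel-captured His-tagged GTPase, 3 hours at room temperature, with or without His-Sos GEF added for last hour. Fluorescent GTP then added at 100 nM for 45 minutes; wells washed, bound label measured by fluorescence.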

Rho-A = Rho-A (Homo sapiens, UniProt P61586)
Summary of the method: as §1

KRas G12D mutant = target: T1, KRas G12D mutant (Homo sapiens, UniProt P01116, G12D); settings: at 20 μM
T1 construct: fused on or other part: His tag, used for capture on nickel-coated plates
Summary of the method: as §1

[1] = with SOS, read-out: Rac-1 + SOS: % inh.
[2] = without SOS, read-out: Rac-1: % inh.
[3] = with SOS, read-out: Rho-A + SOS: % inh.
[4] = without SOS, read-out: Rho-A: % inh.
[5] = with SOS, read-out: KRas G12D mutant + SOS: % inh.
[6] = without SOS, read-out: KRas G12D mutant: % inh.

| inhibition at 20 µM (Rac-1; [1]) | inhibition at 20 µM (Rac-1; [2]) | inhibition at 20 µM (Rho-A; [3]) | inhibition at 20 µM (Rho-A; [4]) | inhibition at 20 µM (KRas G12D mutant; [5]) | inhibition at 20 µM (KRas G12D mutant; [6]) | Rac-1 + SOS: % inh. (Rac-1; at 20 μM, with SOS) | Rac-1: % inh. (Rac-1; at 20 μM, without SOS) | Rho-A + SOS: % inh. (Rho-A; at 20 μM, with SOS) | Rho-A: % inh. (Rho-A; at 20 μM, without SOS) | KRas G12D mutant: % inh. (KRas G12D mutant; without SOS) | Structure (SMILES) |
| --- | --- | --- | --- | --- | --- | --- | --- | --- | --- | --- | --- |
| 51 to 75% | 76 to 100% | 51 to 75% | 51 to 75% | 26 to 50% | 76 to 100% |  |  |  |  |  | COc1ccc(Oc2nc(-c3ccccn3)nc(O)c2OC)cc1 [drawing 950] |
| 0% | 0% | 26 to 50% | 0% | 51 to 75% | 51 to 75% |  |  |  |  |  | COC1CCN(c2nc(-c3nccn3C)nc3sc(-c4ccccc4CO)c(-c4ccccc4)c23)C1 (stereo not drawn) [drawing 952] |
| 0% | 0% | 0% | 0% | 51 to 75% | 1 to 25% |  |  |  |  |  | COC1CCN(c2nc(-c3nccn3C)nc3sc(-c4ccc(CO)cc4)c(-c4ccccc4)c23)C1 (stereo not drawn) [drawing 954] |
| 0% | 1 to 25% | 0% | 51 to 75% | 26 to 50% | 26 to 50% |  |  |  |  |  | COC1CCN(c2nc(-c3nccn3C)nc3sc(-c4ccncc4C)c(-c4ccccc4)c23)C1 (stereo not drawn) [drawing 955] |
| 1 to 25% | 1 to 25% | 26 to 50% | 1 to 25% | 51 to 75% | 26 to 50% |  |  |  |  |  | COC1CCN(c2nc(-c3nccn3C)nc3sc(Br)c(-c4ccccc4)c23)C1 (stereo not drawn) [drawing 957] |
| 1 to 25% | 51 to 75% | 51 to 75% | 26 to 50% | 1 to 25% | 26 to 50% |  |  |  |  |  | Cn1ccnc1-c1nc(O)c(O)c(C(=O)N2CCCCC2)n1 [drawing 961] |
| 1 to 25% | 26 to 50% | 51 to 75% | 26 to 50% | 1 to 25% | 51 to 75% |  |  |  |  |  | CCN(CC)C(=O)c1nc(-c2nccn2C)nc(O)c1O [drawing 964] |
| 76 to 100% | 76 to 100% | 76 to 100% | 76 to 100% | 51 to 75% | 76 to 100% |  |  |  |  |  | Oc1nc(-c2ncc3ccccn23)nc2c(-c3ccccn3)csc12 [drawing 969] |
| 0% | 0% | 76 to 100% | 26 to 50% | 76 to 100% | 26 to 50% |  |  |  |  |  | COC1CCN(c2nc(-c3nccn3C)nc3sc(-c4cnn(C)c4)c(-c4ccccc4)c23)C1 (stereo not drawn) [drawing 970] |
| 1 to 25% | 26 to 50% | 76 to 100% | 51 to 75% | 51 to 75% | 51 to 75% |  |  |  |  |  | COC1CCN(c2nc(-c3nccn3C)nc3sc(-c4ccnn4C)c(-c4ccccc4)c23)C1 (stereo not drawn) [drawing 972] |
| 1 to 25% | 1 to 25% | 0% | 0% | 0% | 1 to 25% |  |  |  |  |  | COc1ccc(Cn2cnc(-c3nc(O)c4scc(-c5ccccn5)c4n3)c2)cc1 [drawing 974] |
| 26 to 50% | 26 to 50% | 1 to 25% | 1 to 25% | 51 to 75% | 26 to 50% |  |  |  |  |  | COc1nscc1-c1sc2nc(-c3nccn3C)nc(N3CCC(OC)C3)c2c1-c1ccccc1 (stereo not drawn) [drawing 975] |
| 51 to 75% | 26 to 50% | 51 to 75% | 51 to 75% | 51 to 75% | 51 to 75% |  |  |  |  |  | COc1ncccc1-c1sc2nc(-c3nccn3C)nc(N3CCC(OC)C3)c2c1-c1ccccc1 (stereo not drawn) [drawing 978] |
| 1 to 25% | 26 to 50% | 26 to 50% | 1 to 25% | 51 to 75% | 51 to 75% |  |  |  |  |  | COc1cc(-c2sc3nc(-c4nccn4C)nc(N4CCC(OC)C4)c3c2-c2ccccc2)ccn1 (stereo not drawn) [drawing 980] |

Further lines, the compound ahead of its results:

| Structure (SMILES) | inhibition at 20 µM (Rac-1; [1]) | inhibition at 20 µM (Rac-1; [2]) | inhibition at 20 µM (Rho-A; [3]) | inhibition at 20 µM (Rho-A; [4]) | inhibition at 20 µM (KRas G12D mutant; [5]) | inhibition at 20 µM (KRas G12D mutant; [6]) | Rac-1 + SOS: % inh. (Rac-1; at 20 μM, with SOS) | Rac-1: % inh. (Rac-1; at 20 μM, without SOS) | Rho-A + SOS: % inh. (Rho-A; at 20 μM, with SOS) | Rho-A: % inh. (Rho-A; at 20 μM, without SOS) | KRas G12D mutant: % inh. (KRas G12D mutant; without SOS) |
| --- | --- | --- | --- | --- | --- | --- | --- | --- | --- | --- | --- |
| COCCc1ccc(Oc2nc(-c3ccccn3)nc(O)c2OC)cc1 [drawing 949] | 76 to 100% | 51 to 75% | 76 to 100% | 76 to 100% | 26 to 50% | 51 to 75% |  |  |  |  |  |
| Oc1nc(-c2cn3ccccc3n2)nc2c(-c3ccccn3)csc12 [drawing 951] | 26 to 50% | 1 to 25% | 1 to 25% | 1 to 25% | 1 to 25% | 26 to 50% |  |  |  |  |  |
| COC1CCN(c2nc(-c3nccn3C)nc3sc(-c4ccc(N)nc4C)c(-c4ccccc4)c23)C1 (stereo not drawn) [drawing 953] | 0% | 0% | 26 to 50% | 0% | 1 to 25% | 1 to 25% |  |  |  |  |  |
| O=C(NCc1ccccc1)c1nc(-c2ccccn2)nc(O)c1O [drawing 956] | 51 to 75% | 51 to 75% | 26 to 50% | 0% | 51 to 75% | 51 to 75% |  |  |  |  |  |
| COC1CCN(c2nc(-c3nccn3C)nc3sc(-c4ccnc(N(C)C)c4)c(-c4ccccc4)c23)C1 (stereo not drawn) [drawing 958] | 51 to 75% | 26 to 50% | 26 to 50% | 26 to 50% | 51 to 75% | 51 to 75% |  |  |  |  |  |
| COC(=O)c1nc(-c2nccn2C)nc(O)c1O [drawing 959] | 51 to 75% | 76 to 100% | 51 to 75% | 1 to 25% | 26 to 50% | 51 to 75% |  |  |  |  |  |
| Cn1ccnc1-c1nc(O)c(O)c(C(=O)NC2CCC2)n1 [drawing 960] | 51 to 75% | 76 to 100% | 51 to 75% | 26 to 50% | 26 to 50% | 51 to 75% |  |  |  |  |  |
| Cn1ccnc1-c1nc(O)c(O)c(C(=O)NC2CCCC2)n1 [drawing 962] | 51 to 75% | 51 to 75% | 76 to 100% | 26 to 50% | 26 to 50% | 51 to 75% |  |  |  |  |  |
| Cn1ccnc1-c1nc(O)c(O)c(C(=O)N2CCCC2)n1 [drawing 963] | 26 to 50% | 51 to 75% | 51 to 75% | 1 to 25% | 1 to 25% | 26 to 50% |  |  |  |  |  |
| CC(C)NC(=O)c1nc(-c2nccn2C)nc(O)c1O [drawing 965] | 51 to 75% | 51 to 75% | 76 to 100% | 51 to 75% | 26 to 50% | 51 to 75% |  |  |  |  |  |
| O=C(c1nc(-c2ccccn2)nc(O)c1O)N1CCCC1 [drawing 966] | 26 to 50% | 26 to 50% | 51 to 75% | 76 to 100% | 1 to 25% | 51 to 75% |  |  |  |  |  |
| O=C(c1nc(-c2ccccn2)nc(O)c1O)N1CCc2ccccc2C1 [drawing 967] | 51 to 75% | 76 to 100% | 76 to 100% | 76 to 100% | 26 to 50% | 51 to 75% |  |  |  |  |  |
| Oc1nc(-c2ncc3n2CCCC3)nc2c(-c3ccccn3)csc12 [drawing 968] | 76 to 100% | 51 to 75% | 76 to 100% | 26 to 50% | 51 to 75% | 51 to 75% |  |  |  |  |  |
| COc1ccc(-c2sc3nc(-c4nccn4C)nc(N4CCC(OC)C4)c3c2-c2ccccc2)cn1 (stereo not drawn) [drawing 971] | 0% | 0% | 26 to 50% | 51 to 75% | 51 to 75% | 26 to 50% |  |  |  |  |  |
| COc1cccc(-c2sc3nc(-c4nccn4C)nc(N4CCC(OC)C4)c3c2-c2ccccc2)c1F.Cl (stereo not drawn) [drawing 973] |  |  |  |  | 51 to 75% |  | 0 (0% inhibition) | A (1-25% inhibition) | C (51-75% inhibition) | A (1-25% inhibition) | C (51-75% inhibition) |
| COCCn1cc(-c2sc3nc(-c4nccn4C)nc(N4CCC(OC)C4)c3c2-c2ccccc2)cn1 (stereo not drawn) [drawing 976] | 51 to 75% | 51 to 75% | 26 to 50% | 26 to 50% | 51 to 75% | 51 to 75% |  |  |  |  |  |
| COC1CCN(c2nc(-c3nccn3C)nc3sc(-c4cnc(C5CC5)o4)c(-c4ccccc4)c23)C1 (stereo not drawn) [drawing 977] | 1 to 25% | 1 to 25% | 51 to 75% | 26 to 50% | 51 to 75% | 51 to 75% |  |  |  |  |  |
| COC1CCN(c2nc(-c3nccn3C)nc3sc(-c4cccnc4)c(-c4ccccc4)c23)C1 (stereo not drawn) [drawing 979] | 51 to 75% | 76 to 100% | 51 to 75% | 51 to 75% | 51 to 75% | 51 to 75% |  |  |  |  |  |

Reference: patent US20250296938A1, “Compounds that Interact with the Ras Superfamily for the Treatment of Cancers, Inflammatory Diseases, Rasopathies, and Fibrotic Disease” (SHY Therapeutics, LLC, priority 2018, published 2025)
